Laboratory results reported in US7910626B2, “Use of S1P receptor agonists in heart diseases” (Novartis AG, priority 2002, dated 2011).

What was measured:
[1] = Acute toxicity p.o. in rats; details: rat, in vivo, po
Description: (§1) S1P receptor agonists are well tolerated at dosages required for use in accordance with the present invention. For example, FTY720 has an acute LD50 >10 mg/kg p.o. in rats and monkeys.

[2] = Acute toxicity p.o. in monkeys; details: monkey, in vivo, po
Description: as §1

[3] = test system: chronic heart failure; test: Chronic heart failure in rabbits after large myocardial infarction; type: in vivo; details: heart failure induced by large myocardial infarction, i.v. at a dose of from 0.1 to 10 mg/kg
Description: The effect of a S1P receptor agonist, e.g. a compound of formula I on chronic heart failure is tested in rabbits where heart failure is induced as a consequence of a large myocardial infarction (R P. Hof et al. J. Cardiovasc. Pharmacol., 1991, 18,361-368). The changes of atrial natriuretic factor or baroflex sensitivity are a reliable indicator of the status of the heart failure in this animal model.

Question: For `CCCCCCCCc1ccc(CCC(N)(CO)CO)cc1` [Compound A, 2-amino-2-[2-(4-octylphenyl)ethyl]propane-1,3-diol], which LD50 [1] is on record?
Answer: > 10 mg/kg

Question: What about the LD50 [2] of the same molecule?
Answer: > 10 mg/kg

Question: What about the “effect on the heart failure” value [3] of the same molecule?
Answer: beneficial effect
